ChEMBL document CHEMBL1133266, “Effects of 2-(substituted-sulfanyl)-3,5-dihydro-imidazole-4-one and 2-(substituted-sulfanyl)-1H-imidazole-4,5-dione derivatives on serum HDL-cholesterol” (2000)

Each molecule was assayed on Rattus norvegicus (assay: Compound was evaluated for increase of high density lipoprotein cholesterol (HDL-C) in cholesterol fed male rats after treatment for 8 days at a dose of 80 mg/kg/day; Average % HDL-C change in 6 animals).
Format: functional
Work on `CCSC1=NCC(=O)N1c1ccc(F)cc1` yielded a Change of 140%.

Each molecule was assayed on Rattus norvegicus (assay: Compound was evaluated in vivo for the increase of very low density lipoprotein cholesterol (VLDL-C) in cholesterol fed male rats).
Format: functional
Work on `CCSC1=NCC(=O)N1c1ccccc1C` yielded an Increase of 78%.

What follows are molecules tested on Rattus norvegicus (assay: Increase of high density lipoprotein cholesterol (HDL-C) in cholesterol fed male rats after treatment for 8 days at a dose of 100 mg/kg/day; Average % HDL-C change in 6 animals).
Format: functional
With `CCSC1=NCC(=O)N1c1c(C)cccc1Cl` the Change was 71%.
`CCSC1=NCC(=O)N1c1cccc(Cl)c1C` showed a Change of 26%.
`CCSC1=NCC(=O)N1c1ccccc1C` was tested, and the Change was 139%.
Work on `CCSC1=NCC(=O)N1c1cc(Cl)ccc1C` yielded a Change of 153%.
`CCSC1=NC(=O)C(=O)N1c1ccccc1C` gave a Change of 48%.
In the case of `CCSC1=NCC(=O)N1c1ccccc1Cl`, the Change is reported as 74%.
Molecule `CCSC1=NCC(=O)N1c1ccccc1` has a Change of 89%.
With `CCSC1=NCC(=O)N1c1c(C)cccc1C` the Change was 75%.
In the case of `CCSC1=NCC(=O)N1c1ccc(C)c(Cl)c1`, the Change is reported as 45%.
Molecule `CCSC1=NCC(=O)N1c1c(Cl)cccc1Cl` has a Change of 169%.
With `CCSC1=NCC(=O)N1c1cc(Cl)ccc1OC` the Change was 66%.
With `CCSC1=NC(=O)C(=O)N1c1cc(Cl)ccc1C` the Change was 85%.
With `CCSC1=NCC(=O)N1c1cc(F)ccc1C` the Change was 32%.
For `CCSC1=NCC(=O)N1c1ccc(Cl)cc1C`, the Change was 39%.
Work on `Cc1ccc(Cl)cc1N1C(=O)CN=C1SCc1ccccc1` yielded a Change of 102%.
For `CCSC1=NC(C)C(=O)N1c1cc(Cl)ccc1C` (stereo not drawn), the Change was 211%.
